Source: patent US20210023034A1, “PHENYLALANINE DERIVATIVES FOR USE IN THE TREATMENT OF CANCERS” (UNIVERSITE PARIS EST CRETEIL VAL DE MARNE, priority 2018, published 2021)

How the values were obtained:
Recombinant human IL4I1 = biological target: T1, Recombinant human IL4I1 (Homo sapiens, UniProt Q96RQ9); test: Evaluation of Ki, fluorometric IL4I1 assay; format: biochemical; conditions: for Ki: average of three experiments; for IL4I1 Inhibitor: recombinant human IL4I1, 30 min pre-incubation
T1 construct: purchased R&D Systems, Inc
T1 sequence (Q96RQ9 22-567): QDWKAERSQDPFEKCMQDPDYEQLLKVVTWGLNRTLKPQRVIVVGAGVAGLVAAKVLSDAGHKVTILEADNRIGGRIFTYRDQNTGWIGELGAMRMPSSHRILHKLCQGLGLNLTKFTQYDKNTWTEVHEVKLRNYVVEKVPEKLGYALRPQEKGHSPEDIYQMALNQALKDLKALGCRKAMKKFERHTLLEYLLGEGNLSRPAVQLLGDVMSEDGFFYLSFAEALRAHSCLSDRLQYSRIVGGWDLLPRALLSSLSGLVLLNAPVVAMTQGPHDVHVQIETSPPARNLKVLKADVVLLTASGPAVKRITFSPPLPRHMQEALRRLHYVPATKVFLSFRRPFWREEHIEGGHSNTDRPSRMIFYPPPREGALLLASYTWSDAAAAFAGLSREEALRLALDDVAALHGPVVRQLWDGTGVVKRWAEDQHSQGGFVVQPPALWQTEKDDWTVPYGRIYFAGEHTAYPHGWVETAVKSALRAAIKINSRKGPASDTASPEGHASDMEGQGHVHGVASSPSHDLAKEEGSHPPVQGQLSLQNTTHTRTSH
Experimental: Evaluation of Ki. Recombinant human IL4I1 (from R&D Systems, Inc) was diluted in PBS at 100 µg/mL and pre-incubated for 30 min with decreasing amounts of each inhibitor dissolved in DMSO (50, 25, and 2.5 μM) or DMSO as a control. The activity was tested in the presence of various amounts of substrate ([…] phenylalanine) using the fluorometric IL4I1 assay described by Carbonnelle-Puscian et al. (Leukemia, 2009, volume 23, pages 952-960 (2009). Ki were calculated using Graph Pad Prism.
Recombinant human IL4I1 was diluted in PBS at 100 µg/mL and pre-incubated for 30 min with decreasing amounts of each inhibitor dissolved in DMSO (50, 25, or 2.5 μM) or DMSO alone, as a control, and IL4I1 measured. […] Compound 13 inhibits IL4l1 activity with an almost 10-fold higher Ki.

Jurkat cells [1] = test: Jurkat cell counts (Trypan blue); format: cell-based; conditions: for Jurkat cell proliferation measured by cell counting: Trypan blue counts at days 1, 2, 3 and 6
Experimental: (§1) Cell counts. Jurkat cells were seeded at 0.1×10^6/mL in a 24-well plate and an aliquot mixed with Trypan blue and counted at days 1, 2, 3, and 6 using disposable Fast-read 10 chambers. Evaluation of metabolic proliferation. Jurkat cells were seeded at 0.1×10^6/mL in a 96-well plate and incubated at 37° C. in 5% CO2 for various times. At each time point, cells were centrifuged, the medium removed, and CellTiter 96® Non-Radioactive Cell Proliferation Assay reagent (Promega) added and the cells incubated an additional 4 h before measuring the optical density at 570 nm in a plate reader (BMG Labtech Fluostar Optima).
(§2) (A) Jurkat cells were seeded at 0.1×10^6/mL in a 24-well plate and an aliquot mixed with Trypan blue and counted at days 1, 2, 3, and 6. Data are the average±SD of three independent experiments. (B) Jurkat cells were seeded at 0.1×10^6/mL in a 96-well plate and incubated at 37° C. in 5% CO2 for the times indicated in FIG. 2. At each time point, cells were centrifuged, the medium removed, and the CellTiter 96® Non-Radioactive Cell Proliferation Assay (Promega) performed. Data are reported as the percentage of proliferation relative to that of the control samples (treated with DMSO) and are the average±SD of three independent experiments. *** p<0,001, **** p<0,0001 Two-way ANOVA test.

Jurkat cells [2] = test: Cell proliferation of CPD eFluor670-labeled Jurkat cells (FACS); format: cell-based; conditions: data not shown
Experimental: (§3) Evaluation of cell proliferation. Jurkat cells and PBMCs were labeled with 2 μM Cell Proliferation Dye (CPD) eFluor670 for 10 min at 37° C. DMSO or the compounds were added to labeled PBMCs or Jurkat cells before putting them in culture at 0.2×10^6/well. Jurkat cells were cultured under standard conditions, whereas PBMCs were cultured in 96 U-shaped wells pre-coated with a 0.5 μg/mL solution of anti-CD3 (clone OKT3) functional quality antibody (eBioscience). Cells were collected at day 0, 3, and 6 for fluorescence analysis using a Cyan ADP LX7 (Beckman Coulter). Data were analyzed using Flowjo.

Jurkat cells [3] = test: Evaluation of apoptosis, activated caspase-3 staining, Jurkat cells; format: cell-based; conditions: 100 μM, 24 h
Experimental: (§4) Evaluation of Apoptosis. Cells were seeded at 0.5×10^6/mL in 24-well plates, with or without the compounds at 100 μM or 10 μM etoposide (VP16) as a positive control, and incubated at 37° C. for 24 h. Cells were then fixed and permeabilized using cytox/cytoperm solution (BD Bioscience) followed by the addition of anti-activated caspase 3-AlexaFluor 647 (Rabbit anti-active Caspase 3 clone C92-605, BD Pharmingen). Caspase-3 positive cells were evaluated using a Cyan ADP LX7 (Beckman Coulter) and analyzed using Flowjo.
(§5) (A) Activated caspase-3 staining of Jurkat cells and (B) PBMC. Cells at 0.5×10^6/mL were seeded in 24-well plates with or without the compounds at 100 μM or 10 μM etoposide (VP16), as a positive control, and incubated at 37° C. for 24 h. Twenty-four hours after treatment, apoptotic Caspase-3 positive cells were evaluated by FACS. Data are expressed as the percentage of Caspase-3 positive cells±SD from three independent experiments.

PBMC = test: Evaluation of apoptosis, activated caspase-3 staining, PBMC; format: cell-based, human; conditions: 100 μM, 24 h
Experimental: as §4, §5

Jurkat cells [4] = test: Metabolic proliferation (CellTiter 96 Non-Radioactive Cell Proliferation Assay); format: cell-based; conditions: CellTiter 96, relative to DMSO control
Experimental: as §1, §2

PBMCs = test: Cell proliferation of CPD eFluor670-labeled, anti-CD3 stimulated PBMCs (FACS); format: cell-based, human; conditions: for division index / proliferation index: PBMCs, relative to cells treated with DMSO; for proliferation of PBMCs: anti-CD3 stimulated, days 3 and 6, relative to DMSO
Experimental: as §3
Cell proliferation dye fluor670-labeled PBMCs were stimulated to proliferate in 96-well anti-CD3 coated plates and analyzed at days 3 and 6 by FACS gating on the lymphocytes population. (A) A typical FACS analysis at day 3 is shown. (B) The division (left panel) and proliferation indices (right panel) were calculated using FlowJo. Data are representative of three independent experiments.

[5] = compounds disclosed in WO2010/06685

Row | SMILES | Ki (Recombinant human IL4I1; [5]) [µM] | Ki (Recombinant human IL4I1) [µM] | IL4I1 Inhibitor (Recombinant human IL4I1) | fold higher Ki (Recombinant human IL4I1; Ki compared with the other tested compounds) [fold] | Jurkat cell proliferation measured by cell counting (Jurkat cells [1]) | proliferation of Jurkat cells (Jurkat cells [2]) | apoptosis of Jurkat cells (Caspase-3 positive cells) (Jurkat cells [3]) | apoptosis of PBMCs (Caspase-3 positive cells) (PBMC) | Jurkat cell proliferation measured by metabolic labeling (Jurkat cells [4]) | division index (PBMCs) | proliferation index (PBMCs) | proliferation of PBMCs (PBMCs) | toxicity to Jurkat cells (Jurkat cells [1]; six days of culture)
1 | NC(Cc1ccccn1)C(=O)O (stereo not shown) [2′-aza-phenylalanine, reference compound] | 2800 | – | – | – | – | – | – | – | – | – | – | – | –
2 | CCOC(=O)C(Cc1c(Cl)cccc1Cl)N1CCCCC1 (stereo not shown) [Cp 7] | – | 9.8 | Yes | – | strongly inhibits proliferation | – | induced | induced | strongly inhibits proliferation | – | – | – | –
3 | CCOC(=O)C(Cc1ccccc1)N(CC)CC (stereo not shown) [Cp 13] | – | 102 | Yes | ~10 | do not affect cell proliferation | not substantially modified | do not induce significant apoptosis | do not induce significant apoptosis | do not affect cell proliferation | do not vary markedly | do not vary markedly | not substantially modified | –
4 | CC(=O)N[C@@H](Cc1ccccc1)C(=O)O [N-acetyl-phenylalanine, reference compound] | 2100 | – | – | – | – | – | – | – | – | – | – | – | –

Further lines, with some results ahead:

Row | Ki (Recombinant human IL4I1; [5]) [µM] | Ki (Recombinant human IL4I1) [µM] | IL4I1 Inhibitor (Recombinant human IL4I1) | fold higher Ki (Recombinant human IL4I1; Ki compared with the other tested compounds) [fold] | SMILES | Jurkat cell proliferation measured by cell counting (Jurkat cells [1]) | proliferation of Jurkat cells (Jurkat cells [2]) | apoptosis of Jurkat cells (Caspase-3 positive cells) (Jurkat cells [3]) | apoptosis of PBMCs (Caspase-3 positive cells) (PBMC) | Jurkat cell proliferation measured by metabolic labeling (Jurkat cells [4]) | division index (PBMCs) | proliferation index (PBMCs) | proliferation of PBMCs (PBMCs) | toxicity to Jurkat cells (Jurkat cells [1]; six days of culture)
5 | – | 21.3 | Yes | – | CCCNC(Cc1ccccc1)C(=O)OCC (stereo not shown) [Cp 2] | do not affect cell proliferation | not substantially modified | do not induce significant apoptosis | do not induce significant apoptosis | do not affect cell proliferation | do not vary markedly | do not vary markedly | not substantially modified | –
6 | – | 26.9 | Yes | – | CCOC(=O)C(Cc1ccccc1)Nc1ccccc1 (stereo not shown) [Cp 15] | no cells remained after six days of culture | – | – | – | – | – | – | – | toxic
7 | – | 25 | Yes | – | CCOC(=O)C(Cc1ccccc1)Nc1ccccc1C(O)C(=O)OCC (stereo not shown) [Cp 16] | – | – | does not induce apoptosis | – | – | – | – | – | –
8 | 3100 | – | – | – | CCOC(=O)[C@@H](N)Cc1ccccc1 [L-phenylalanine ethyl ester, reference compound] | – | – | – | – | – | – | – | – | –
